Assay results: US20110086758A1, “Fungicidal compositions comprising 3'-bromo-2,3,4,6'-tetramethoxy-2',6-dimethylbenzophenone” (BASF SE, priority 2008, published 2011)

System: Sphaerotheca fuliginea
Assay: Field testing on melons, natural infection with Sphaerotheca fuliginea
Assay type: in vivo
Details: efficacy in % of untreated control, 3 applications
Description: The visually determined percentages of infected leaf areas were converted into efficacies in % of the untreated control: The efficacy (E) is calculated as follows using Abbot's formula: W=(1−α/β)·100 • α corresponds to the fungicidal infection of the treated plants in % and • β corresponds to the fungicidal infection of the untreated (control) plants in % At an efficacy of 0, the infection level of the treated plants corresponds to that of the untreated control plants; at an efficacy of 100, the treated plants are not infected. The expected efficacies of active compound mixtures were determined using Colby's formula (S. R. Colby, “Calculating synergistic and antagonistic responses of herbicide combinations”, Weeds 15, pp. 20-22 (1967) and compared with the observed efficacies. E=x+y−x·y/100 • expected efficacy, expressed in % of the untreated control, when using the mixture of the active compounds A and B at the concentrations a and b • x efficacy, expressed in % of the untreated control, when using the active compound A at the concentration a • y efficacy, expressed in % of the untreated control, when using the active compound B at the concentration b The trial was carried out under standardized field conditions. Melons were grown in the field. After 36 days, an application with the recited products was carried out, which was repeated two times after 7 days and after 14 days. No further active components for pathogen control were applied. The infection with the pathogen Sphaerotheca fuliginea ensued naturally. Infestation in % of leaf area affected was scored 35 days after the first application. The visually determined values of % of leaf area infected was initially averaged and then converted into efficacies as % of the untreated control. An efficacy of 0 is the same infestation as the untreated control, an efficacy of 100% is 0% infestation. The expected efficacies of active compound combinations were determined as described above using Colby's formula and compared with the observed efficacies. The active compounds were used as commercially available compositions. […]

CC1COC(Cn2cncn2)(c2ccc(Oc3ccc(Cl)cc3)cc2Cl)O1 (stereo not drawn) [Difenoconazole, 1-{2-[2-chloro-4-(4-chlorophenoxy)phenyl]-4-methyl-[1,3]dioxolan-2-ylmethyl}-1H-[1,2,4]triazole]
Observed effect 35 days after first treatment (dose 30 g ai/ha, scored 35 days after first application): 19%

COc1cc(C)c(C(=O)c2c(OC)ccc(Br)c2C)c(OC)c1OC [Metrafenone, 3′-bromo-2,3,4,6′-tetramethoxy-2′,6-dimethylbenzophenone]
Observed effect 35 days after first treatment (dose 50 g ai/ha, scored 35 days after first application): 46% | Observed effect 35 days after first treatment (dose 100 g ai/ha, leaf area infested scored 35 days after first application): 70%
